According to patent US20120041065A1, “LAURIC ACID DISTILLATE FOR ANIMAL FEED” (CAN TECHNOLOGIES, INC., priority 2010, published 2012):

Assays:
[1] = test system: male broiler chickens (Ross 708); test: First study: growth performance and carcass evaluation in broilers fed HPKFAD or LA
[2] = test system: grow-finish pigs; test: Fifth study: growth performance of grow-finish pigs fed HLAD, LA or BMD; settings: P<0.05
[3] = test system: male broiler chickens (Ross 708); settings: in vivo
[4] = test system: broilers challenged with coccidia and Clostridia perfringens; assay type: in vivo
[5] = test system: broilers challenged with coccidian vaccine and Clostridium Perfringens; assay type: in vivo; settings: versus negative control; throughout the study
[6] = test system: pigs (initial BW of 9.98 lbs); test: Fourth study: nursery pig challenge model (dirty room) with LAD, Mecadox, calsporin; assay type: in vivo; settings: severely challenged pigs; d 0 to 40
Procedure: A total of 96 pigs (initial BW of 9.98 lbs) were allotted to one of 8 treatments (12 replicates per treatment with 1 pigs per replicate). The treatments were 1) a negative control (NC) diet with no antibiotic (Ab), 2) a control diet with an Ab (Mecadox), 3) a diet with LAD at 0.25%, 4) a diet with LAD at 0.5%, 5) a diet with LAD at 1%, 6) a diet with calsporin, 7) a diet with calsporin and LAD at 1%, 8) and a diet with calsporin and LAD at 0.5%. Feed intakes and body weights were determined at the end of each feeding phase. […] Also, ZnO and CuSO4 were not added into the diet to enhance the challenge. The feeding phases were from d 0 to […], d 11 to 20, d 20 to 40. The data, especially from Phase 1 and 2, illustrated the pigs were severely challenged in this trial, which enhanced the effect of the antibiotic. […] The optimum level of LAD was 0.25% for the early growth period and increased to 0.50% for the later growth period. Accordingly, the recommended level of HLAD to be fed to nursery pigs is between 0.25% and 0.5%.

[7] = test system: broilers challenged with coccidian vaccine and Clostridium Perfringens; assay type: in vivo; settings: diets that contained papain relative to any other diet; P<0.05

CCCCCCCCCCCC(=O)O [LA, lauric acid]
overall ADFI ([1]; LA 0.1% versus negative control, P=0.166): numerically lower but not statistically significant | overall ADG ([1]; LA included at 0.2 and 0.4%, P 0.038): decline in overall ADG | breast and leg yield ([1]; LA treatments): did not so such an increase | overall feed efficiency, dose response ([1]; across inclusion levels, P<0.001): significant linear and plateau responses | overall ADFI ([1]; all non-zero LA treatments except 0.1% versus negative control): decrease | overall ADFI ([1]; all non-zero treatments versus negative control, P 0.045): decrease | overall feed efficiency ([1]; included at 0.4 and 0.8% compared to negative control, P>0.016 as printed): improved | Average Hot Carcass Weight ([1]; non-zero treatments versus control, P≧0.111): no differences | Average Breast Weight ([1]; non-zero treatments versus control, P≧0.236): no treatment differences | Average Leg Weight ([1]; non-zero treatments versus control, P≧0.267): no treatment differences | Percent Leg Yield ([1]; other HPKFAD and LA treatment comparisons, P≧0.195): No other treatment differences | Percent Breast Yield ([1]; other HPKFAD and LA treatment comparisons, P≧0.404): No other treatment differences | ADFI, Phase 3 ([2]; LA at 0.1% relative to control diet or HLAD at 0.4%): decreased | Removed Animals (Adverse Event), overall proportion of animals removed [3]: no differences

bacitracin methylene disalicylate [BMD]
Feed efficiency, Phase 2 ([2]; antibiotic relative to LA at 0.1% or HLAD at 0.4%): increased | performance ([4]; BMD): only tended to improve performance | feed intake, day 7 ([4]; BMD relative to any other dietary treatment, P<0.05): higher | performance [5]: tended to have improved performance

COC(=O)N/N=C/c1c[n+]([O-])c2ccccc2[n+]1[O-] [Mecadox]
performance (feed intakes and body weights) [6]: improved performance

B1: papain: protease fed alone and in combination with hydrolyzed lauric acid (protein, UniProt P00784 134-345, looked up)
Papain: IPEYVDWRQKGAVTPVKNQGSCGSCWAFSAVVTIEGIIKIRTGNLNEYSEQELLDCDRRSYGCNGGYPWSALQLVAQYGIHYRNTYPYEGVQRYCRSREKGPYAAKTDGVRQVQPYNEGALLYSIANQPVSVVLEAAGKDFQLYRGGIFVGPCGNKVDHAVAAVGYGPNYILIKNSWGTGWGENGYIRIKRGTGNSYGVCGLYTSSFYPVKN
ADG [7]: decreased | Feed intake [7]: decreased
